The results in this text go back to patent publication US20250275964A1, “METHODS OF INHIBITING LIVER-TYPE GLUTAMINASE, GLS2” (CORNELL UNIVERSITY, priority 2019, published 2025).

For one test, the system named is BT-474 cells. Nature of the test: 6-day cell proliferation assay, BT-474. In kind it is cell-based, human. To be noted: BT-474, proliferation over 6 days. As to the method:
(§1) Human breast cancer cell lines MCF7, BT-474, T-47D, MDA-MB-453, MDA-MB-231, Hs 578T, HCC38, SK-BR-3, and DU4475 were purchased from the American Type Culture Collection (ATCC) and no additional cell authentication was performed. The TSE human breast cancer cell line was supplied by Dr. Steven Abcouwer (University of Michigan). All breast cancer cells were cultured at 37° C. under a 5% CO2 atmosphere in RPMI 1640 medium containing 2 mM glutamine (Gibco) and supplemented with 10% fetal bovine serum (FBS) (Gibco). The 293T cell line (ATCC) used for generating lentivirus particles was cultured as above but using DMEM, high glucose (Gibco).
(§2) Culture medium was added to 12-well plates (1 ml/well) and wells were seeded with cells at Day 0 as follows. MCF7, T-47D, BT-474, HCC38 cells: […] cells/well. MDA-MB-453 and MDA-MB-231 cells: 1×10^4 cells/well. TSE and Hs 578T cells: 0.3×10^4 cells/well. After 16 hours, culture medium was replaced with fresh medium supplemented with appropriate concentrations of inhibitors and was subsequently replaced every 48 hours. On Day 6 cells were trypsinized and suspended in an appropriate volume of culture medium, and the total number of cells per well was determined using a hemocytometer or a TC20 Automated Cell Counter (Bio-Rad).

The test system of another test is T-47D cells. Kind of test: 6-day cell proliferation assay, T-47D. To be noted: proliferation over 6 days. In kind it is cell-based, human. As to the method: as §1, §2
In another test the test system is MDA-MB-453 cells. Kind of test: 6-day cell proliferation assay, MDA-MB-453. The format is cell-based, human. To be noted: MDA-MB-453, proliferation over 6 days. How it is done:
as §1, §2

The test system of a further test is MDA-MB-231 cells. Kind of test: 6-day cell proliferation assay, MDA-MB-231. In kind it is cell-based, human. How it is done:
as §1, §2

The target of test [1] is T1, recombinant full-length human GLS2 (Homo sapiens, UniProt Q9UI32).
T1 construct: GLS2 (residues 38 to 602) in E. coli; inferred from pQE80 vector and Ni-NTA/imidazole purification; made in house; host or cells: E. coli BL21(DE3)
T1 sequence (Q9UI32 38-602): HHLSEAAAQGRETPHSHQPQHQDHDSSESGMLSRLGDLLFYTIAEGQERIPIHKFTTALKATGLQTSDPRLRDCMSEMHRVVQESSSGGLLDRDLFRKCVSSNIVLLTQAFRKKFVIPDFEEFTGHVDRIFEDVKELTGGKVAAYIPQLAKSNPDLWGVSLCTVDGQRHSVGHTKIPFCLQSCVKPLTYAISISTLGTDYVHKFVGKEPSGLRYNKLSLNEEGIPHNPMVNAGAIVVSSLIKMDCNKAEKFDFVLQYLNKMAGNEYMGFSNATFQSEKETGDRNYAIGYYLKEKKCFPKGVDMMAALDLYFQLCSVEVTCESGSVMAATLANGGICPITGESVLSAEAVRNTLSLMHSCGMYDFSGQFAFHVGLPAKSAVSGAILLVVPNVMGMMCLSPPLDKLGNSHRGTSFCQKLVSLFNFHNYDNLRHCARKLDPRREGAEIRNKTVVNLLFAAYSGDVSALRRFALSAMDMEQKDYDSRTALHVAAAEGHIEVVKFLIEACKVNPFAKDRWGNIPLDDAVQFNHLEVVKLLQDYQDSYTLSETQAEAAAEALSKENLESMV
Nature of the test: Real-time recombinant glutaminase activity assay, GLS2. The format is biochemical. As to the method:
Real-time monitoring of glutaminase activity through NADH production was performed on a Cary Eclipse fluorescence spectrometer. The excitation and emission wavelengths were set at 340 nm and 460 nm, respectively. To a 1 ml cuvette, 900 μl of assay buffer was added, followed by 10 μl of GDH, 40 μl of 50 mM NAD and 20 μl of either DMSO or various dilutions of 968. Then, 100 μl of either 100 nM GAC or 500 nM GLS2 was added to this mixture and the fluorescence emission was monitored in real time. After 30 s, 200 μl of a mixture of glutamine and K2HPO4 was added such that the final concentrations of K2HPO4 and glutamine were 100 mM and 20 mM, respectively. The initial velocity of glutamine hydrolysis was obtained from the slopes of the linear portion of the kinetic curve.
Recombinant GAC and GLS2 were expressed in E. coli as described in Huang et al., “Characterization of the Interactions of Potent Allosteric Inhibitors with Glutaminase C, a Key Enzyme in Cancer Cell Glutamine Metabolism,” J. Biol. Chem. 293:3535-3545 (2018), which is hereby incorporated by reference in its entirety. Briefly, E. coli strain BL21(DE3) (Thermo Fisher Scientific) were transformed with vector pQE80-GAC-72-598 or with pQE80-GLS2-38-602 to express the processed forms of GAC and GLS2, respectively. For both constructs, expression was induced with 0.3 mM IPTG for 20 hours at 18° C., and cells were then harvested by centrifugation and lysed by sonication in binding buffer (500 mM NaCl, 50 mM Tris-HCl pH 8.5, 10 mM imidazole, 5 mM β-mercaptoethanol, 1 mM benzamidine chloride). The lysate was centrifuged, and the supernatant applied to a Ni-NTA column which was then washed with 100 column volumes of binding buffer followed by 10 volumes of wash buffer (500 mM NaCl, 50 mM Tris-HCl pH 8.5, 40 mM imidazole, 5 mM β-mercaptoethanol, 1 mM benzamidine chloride). Protein was eluted with 5 column volumes of elution buffer (500 mM NaCl, 300 mM imidazole-HCl pH 7.5, 5 mM β-mercaptoethanol, 1 mM benzamidine chloride). The eluate was centrifugally concentrated and then further purified by FPLC using a HiLoad 16/600 Superdex 200 column (GE Healthcare) with 150 mM NaCl, 5 mM Tris-HCl pH 7.5.

The subject of the next test is TSE cells. Kind of test: 6-day cell proliferation assay, TSE. In kind it is cell-based, human. As to the method: as §1, §2
Setting [2] is: MDA-MB-231 (parental), compared with GLS2 clones, 6 days.
Where [3] appears, read: MDA-MB-231, proliferation over 6 days.
Setting [4] is: TSE (parental), compared with GLS2 clones, 6 days.

Molecules are shown by their SMILES. Several values for one entry are separate records, joined by “and”; a condition that tells them apart may be missing. Equal values may be shown once. Where only a bound is given, the exact number is not on record here.

Regarding `O=C(Cc1ccccc1)Nc1nnc(CCSCCc2nnc(NC(=O)Cc3ccccc3)s2)s1` [BPTES], the concentration giving a half-maximal response (EC50) in the test with BT-474 cells was ~20 µM; in the test with T-47D cells it was ~20 µM; in the test with MDA-MB-453 cells it was ~20 µM; with MDA-MB-231 cells (setting [2]), 2 µM; in the test on MDA-MB-231 cells (setting [3]) it was 2.1 µM; with TSE cells (setting [4]), 3 µM. In the test on TSE cells (TSE, proliferation over 6 days), the midpoint of the response, the EC50, lay at 3.1 µM. In test [1] (different concentrations), the “inhibition of recombinant GLS2 activity” value is given as “resistance”.

As to `CN(C)c1ccc(C2Nc3ccc4ccccc4c3C3=C2C(=O)CC(C)(C)C3)cc1Br` (stereo not drawn) [Compound 968], the EC50 in the test with BT-474 cells was 4 µM; with T-47D cells, 4 µM; in the test on MDA-MB-453 cells it was 3 µM; in the test with MDA-MB-231 cells (setting [2]) it was 4 µM; in the test with MDA-MB-231 cells (setting [3]) it was 5 µM; with TSE cells (setting [4]), 4 µM. The molecule further returned an EC50 in the test on TSE cells (TSE, proliferation over 6 days) of 5 µM. The “inhibition of recombinant GLS2 activity” value is listed as “completely blocks activity” in test [1] (at 50 μM, NADH fluorescence in real time) and “inhibited” in test [1] (different concentrations). In addition, the “selectivity for GLS2 over GLS” value in test [1] (purified recombinant glutaminases) is > 3 fold and ~3 fold.
